Earlier results as cited in patent publication US20050009848A1, “Use of antivirals against inflammatory bowel diseases” (ICN Pharmaceuticals Switzerland Ltd., priority 2003, published 2005).

Details: one patient with Crohn's disease, HSV-I and HSV-II DNA detected in intestinal mucosa; acyclovir co-used with classical mesalazin-corticosteroid therapy

Q: For `Nc1nc2c(ncn2COCCO)c(=O)[nH]1` [acyclovir], which “morphological and clinical findings” value is on record?
A: changed the morphological and clinical findings decisively
